Experimental findings from ChEMBL document CHEMBL1126301, “Anti-HIV-I activity of linked lexitropsins” (J Med Chem, 1992) are described below.

Calls of active or inactive are those of the source. The rule behind the calls is not given here.

Data set [1] concerns Human immunodeficiency virus 1. The experiment in a line: Inhibitory activity against T4-lymphocytes (CEM cell line) infected with HIV-1; moderate. Format: functional, organism-based. The conditions noted are these: CCRF-CEM.
The test system of data set [2] is CCRF-CEM. As to the kind of experiment: Inhibitory activity against T4-lymphocytes (CEM cell line) infected with HIV-1; active. In kind it is functional, cell-based. The conditions noted are these: Homo sapiens.
Another data set concerns HIV-1. The experiment in a line: Therapeutic index (TI) was measured as ratio of IC50 and EC50 (HIV-1). The conditions noted are these: human immunodeficiency virus 1; read-out: TI50.
In data set [3] the test system is Human immunodeficiency virus 1. As to the kind of experiment: Inhibitory activity against HIV-1 in T4-lymphocytes (CEM cell line). In kind it is functional, organism-based. The conditions noted are these: Human immunodeficiency virus 1, CCRF-CEM.
The subject of data set [4] is CCRF-CEM. As to the kind of experiment: Inhibition of T4-lymphocytes (CEM cell line) infected with HIV-1. Format: functional, cell-based. As to conditions: Homo sapiens.

The term EC50 denotes the concentration giving half of the maximal effect. The IC50 is the concentration needed to halve the response being measured.

For the molecule `Cn1cc(NC(=O)c2cc(NC(=O)c3cc(NC(=O)CCCCCCCCC(=O)Nc4cc(C(=O)Nc5cc(C(=O)Nc6cc(C(=O)NCCC(=N)N)n(C)c6)n(C)c5)n(C)c4)cn3C)cn2C)cc1C(=O)NCCC(=N)N`, the Activity entry in data set [1] is “Moderate”.

In the case of `Cn1cc(NC(=O)c2cc(NC(=O)c3ccc(C(=O)Nc4cc(C(=O)Nc5cc(C(=O)NCCC(=N)N)n(C)c5)n(C)c4)cc3)cn2C)cc1C(=O)NCCC(=N)N`, the outcome in the data set with CCRF-CEM [2] was Active. The selectivity ratio in the data set with HIV-1 was found to be 14.8. The half-maximal effective concentration (EC50) in data set [3] worked out at 1.21 µM. Moreover, in the data set with CCRF-CEM [4], half-maximal inhibition (IC50) required 17.9 µM.
